Data as given in US20250230193A1, “CYCLIC COMPOUND HAVING SELECTIVE KRAS INHIBITORY EFFECT ON HRAS AND NRAS” (CHUGAI SEIYAKU KABUSHIKI KAISHA, priority 2022, published 2025).
Where a SMILES comes first, the peptide text is derived from it. Bridges are numbered along the chain shown (N, C = ends). [ ]: non-standard residue; d: D form. The star is where a group is joined. hPhe(3,5-F2-4-CF3) = N[C@@H](CCc1cc(F)c(C(F)(F)F)c(F)c1)C(=O)O; hPhe(3-Cl-4-CF3) = N[C@@H](CCc1ccc(C(F)(F)F)c(Cl)c1)C(=O)O; NPrPhe(4-CF3) = CCCN[C@@H](Cc1ccc(C(F)(F)F)cc1)C(=O)O; NMeGly(cPent) = CN[C@H](C(=O)O)C1CCCC1; Hyp = O=C(O)[C@@H]1C[C@@H](O)CN1; NMeD = CN[C@@H](CC(=O)O)C(=O)O; NMeL = CN[C@@H](CC(C)C)C(=O)O; αMeS = C[C@](N)(CO)C(=O)O; Morpholide = C1CN(*)CCO1; Ac5c = NC1(C(=O)O)CCCC1; Sar = CNCC(=O)O; tBu = CC(C)(C)*

Tests used:
[1] = target: GDP-bound HRAS wild-type protein (Homo sapiens, UniProt P01112); assay: Binding to HRAS by surface plasmon resonance (SPR), Single Cycle Kinetics
GDP-bound HRAS wild-type protein, sequence (P01112 whole entry): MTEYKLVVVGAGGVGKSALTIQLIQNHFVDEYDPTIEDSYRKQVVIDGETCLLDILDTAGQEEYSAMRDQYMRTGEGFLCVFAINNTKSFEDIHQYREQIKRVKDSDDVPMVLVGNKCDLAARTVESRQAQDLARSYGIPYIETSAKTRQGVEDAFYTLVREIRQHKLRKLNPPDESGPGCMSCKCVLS

[2] = target: GDP-bound NRAS wild-type protein (Homo sapiens, UniProt P01111); assay: Binding to NRAS by surface plasmon resonance (SPR), Single Cycle Kinetics
GDP-bound NRAS wild-type protein, sequence (P01111 whole entry): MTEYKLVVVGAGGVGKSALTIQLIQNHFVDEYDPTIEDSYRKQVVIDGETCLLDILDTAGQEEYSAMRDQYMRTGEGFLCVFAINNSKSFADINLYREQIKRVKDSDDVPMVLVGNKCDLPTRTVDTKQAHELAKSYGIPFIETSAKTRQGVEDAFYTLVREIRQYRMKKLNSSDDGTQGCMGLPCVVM

CCO[C@@H]1C[C@H]2C(=O)NC3(CCC3)C(=O)N(C)[C@@H](C3CCCC3)C(=O)N(C)[C@H](C(=O)N(C)CC)CC(=O)N(C)[C@@H](CC(C)C)C(=O)N[C@@H]([C@@H](C)CC)C(=O)N(C)CC(=O)N(C)[C@H]3C/C=C\CCN(C3=O)[C@@H](Cc3ccc(C(F)(F)F)cc3)C(=O)N(C)CC(=O)N[C@@H](CCc3cc(F)c(C(F)(F)F)c(F)c3)C(=O)N2C1 [PP1300]
HRAS/KRAS (ratio of KD value for GDP-bound HRAS wild-type protein to KD value for KRAS) ([1]; SPR, KD ratio class): A (a compound having 10 or more and less than 20 is denoted as A) | NRAS/KRAS (ratio of KD value for GDP-bound NRAS wild-type protein to KD value for KRAS) ([2]; SPR, KD ratio class): A (a compound having 10 or more and less than 20 is denoted as A)

CC[C@H](C)[C@@H]1NC(=O)[C@H](C)N(C)C(=O)C[C@@H](C(=O)N(C)C)N(C)C(=O)[C@H](C2CCCC2)N(C)C(=O)C2(CCC2)NC(=O)[C@@H]2CC(F)(F)CN2C(=O)[C@H](CCc2cc(F)c(C(F)(F)F)c(F)c2)NC(=O)CN(C)C(=O)[C@H](Cc2ccc(C(F)(F)F)cc2)N2CCCCC[C@@H](C2=O)N(C)C(=O)CN(C)C1=O [PP0473]
HRAS/KRAS (ratio of KD value with respect to GDP-bound HRAS wild-type protein to KD value with respect to KRAS) ([1]; KD ratio HRAS/KRAS, SPR): C (A compound having a KD ratio of 0.1 or more and less than 3 is denoted as C) | NRAS/KRAS (ratio of KD value with respect to GDP-bound NRAS wild-type protein to KD value with respect to KRAS) ([2]; KD ratio NRAS/KRAS, SPR): C (A compound having a KD ratio of 0.1 or more and less than 3 is denoted as C)

CCCN1C(=O)CN(C)C(=O)CNC(=O)[C@H]([C@@H](C)CC)NC(=O)[C@H](CC(C)C)N(C)C(=O)C[C@@H](C(=O)N2CCOCC2)NC(=O)[C@H](C2CCCC2)N(C)C(=O)C2(CCCC2)NC(=O)[C@@H]2C[C@@H](OCC)CN2C(=O)[C@H](CCc2ccc(C(F)(F)F)c(Cl)c2)NC(=O)CN(C)C(=O)[C@@H]1Cc1ccc(C(F)(F)F)cc1 [PP0329] ([NMeL]IG[Sar][NPrPhe(4-CF3)][Sar][hPhe(3-Cl-4-CF3)][Hyp](Et)[Ac5c][NMeGly(cPent)]D-Morpholide; lactam N-11)
HRAS/KRAS (ratio of KD for GDP-bound HRAS wild-type to KD for KRAS) ([1]; KD ratio HRAS/KRAS, SPR): C (A compound having a KD ratio of 0.1 or more and less than 3 is denoted as C) | NRAS/KRAS (ratio of KD for GDP-bound NRAS wild-type to KD for KRAS) ([2]; KD ratio NRAS/KRAS, SPR): B (a compound having 3 or more and less than 10 is denoted as B)

CCO[C@@H]1C[C@H]2C(=O)NC3(CC(C)(C)C3)C(=O)N(C)[C@@H](C(CC)CC)C(=O)N(C)[C@H](C(=O)N3CCCC3)CC(=O)N(C)[C@@H](COC)C(=O)N[C@@H]([C@@H](C)CC)C(=O)N(C)CC(=O)N(C)[C@H]3C/C=C\CCN(C3=O)[C@@H](Cc3ccc(C(F)(F)F)cc3)C(=O)N(C)CC(=O)N[C@@H](CCc3ccc(Cl)c(Cl)c3)C(=O)N2C1 [PP2174]
HRAS/KRAS (ratio of KD value with respect to HRAS to KD value with respect to KRAS) ([1]; SPR, GDP-bound HRAS wild-type vs GDP-bound KRAS wild-type): A (a compound having 10 or more and less than 20 is denoted as A) | NRAS/KRAS (ratio of KD value with respect to NRAS to KD value with respect to KRAS) ([2]; SPR, GDP-bound NRAS wild-type vs GDP-bound KRAS wild-type): AA (a compound having 20 or more is denoted as AA)

CCC(CC)[C@H]1C(=O)N(C)[C@H](C(=O)N(C)C)CC(=O)N(C)[C@@H](COC)C(=O)N[C@@H]([C@@H](C)CC)C(=O)N(C2CC2)CC(=O)N(C)[C@H]2C/C=C\CCN(C2=O)[C@@H](CC2CCC(F)(F)CC2)C(=O)N(C)CC(=O)N[C@@H](CCc2cc(F)c(C(F)(F)F)c(F)c2)C(=O)N2C[C@H](OC3CCC3)C[C@H]2C(=O)NC2(CC(C)(C)C2)C(=O)N1C [PP2615]
HRAS/KRAS (ratio of KD value with respect to GDP-bound HRAS wild-type protein to KD value with respect to KRAS) ([1]; KD ratio HRAS/KRAS, class symbols): A (a compound having 10 or more and less than 20 is denoted as A) | NRAS/KRAS (ratio of KD value with respect to GDP-bound NRAS wild-type protein to KD value with respect to KRAS) ([2]; KD ratio NRAS/KRAS, class symbols): A (a compound having 10 or more and less than 20 is denoted as A)

CCCN1C(=O)CN(C)C(=O)CN(C)C(=O)[C@H]([C@@H](C)CC)NC(=O)[C@H](CC(C)C)N(C)C(=O)C[C@@H](C(=O)N2CCOCC2)N(C)C(=O)[C@H](C2CCCC2)N(C)C(=O)[C@](C)(COC(C)(C)C)NC(=O)[C@@H]2CCCN2C(=O)[C@H](CCc2cc(F)c(C(F)(F)F)c(F)c2)NC(=O)CN(C)C(=O)[C@@H]1Cc1ccc(C(F)(F)F)cc1 [PP0764] ([NMeL]I[Sar][Sar][NPrPhe(4-CF3)][Sar][hPhe(3,5-F2-4-CF3)]P[αMeS](tBu)[NMeGly(cPent)][NMeD]-Morpholide; lactam N-11)
HRAS/KRAS (ratio of KD value with respect to GDP-bound HRAS wild-type protein to KD value with respect to KRAS) ([1]; KD ratio HRAS/KRAS, SPR): B (a compound having 3 or more and less than 10 is denoted as B) | NRAS/KRAS (ratio of KD value with respect to GDP-bound NRAS wild-type protein to KD value with respect to KRAS) ([2]; KD ratio NRAS/KRAS, SPR): B (a compound having 3 or more and less than 10 is denoted as B)

CCO[C@@H]1C[C@H]2C(=O)NC3(CC(F)(F)C3)C(=O)N(C)[C@@H](C3CCCC3)C(=O)N(C)[C@H](CC)CC(=O)N(C)[C@@H](CC)C(=O)N[C@@H]([C@@H](C)CC)C(=O)N(C)CC(=O)N(C)[C@H]3C/C=C\CCN(C3=O)[C@@H](Cc3ccc(C(F)(F)F)cc3)C(=O)N(C)CC(=O)N[C@@H](CCc3cc(F)c(C(F)(F)F)c(F)c3)C(=O)N2C1 [PP1627]
HRAS/KRAS (ratio of KD value for HRAS to KD value for KRAS) ([1]; KD ratio, GDP-bound HRAS wild-type vs GDP-bound KRAS wild-type, SPR): A (a compound having 10 or more and less than 20 is denoted as A) | NRAS/KRAS (ratio of KD value for NRAS to KD value for KRAS) ([2]; KD ratio, GDP-bound NRAS wild-type vs GDP-bound KRAS wild-type, SPR): A (a compound having 10 or more and less than 20 is denoted as A)
